Test results taken from US5145955A, “Process for the preparation and composition of a fraction containing picroside I and kutkoside” (Council of Scientific & Industrial Research, priority 1991, dated 1992).
Read-outs that look alike come from different tables or passages of the source.

What was measured:
[1] = tested on: bile flow (choleretic effect); test: Choleretic effect of cucurbitacin glucoside and F006 (bile volume and bile contents); format: in vivo
cholestasis = test: Anticholestatic effect against induced cholestasis; format: in vivo; details: paracetamol induced; 0.5 and 1 mg/kg po × 7
[2] = tested on: thioacetamide induced hepatic damage (liver); test: Protection against thioacetamide induced biochemical changes in liver in rat; format: in vivo
Method: Although cucurbitacin glucoside (III) was a known compound, its biological activity is reported here for the first time. […] At higher dose (1 mg/kg) also, it reversed the decrease in levels of DNA (56%), RNA (100%) and glycogen (36%).

isolated rat hepatocytes = format: cell-based; details: paracetamol-toxicated
Method: In the isolated hepatocyte preparation the, hepatoprotective activity was assessed against paracetamol, galactosamine carbon tetrachloride and thioacetamide induced damage.
The effect of cucurbitacin glucoside and F006 was also studied on paracetamol-toxicated isolated rat hepatocytes (ex vivo). At the doses of 0.5 and 1 mg/kg po×7.

[3] = tested on: Plasmodium berghei infection in mastomys; test: Hepatoprotective activity against Plasmodium berghei infection-induced hepatic damage; format: in vivo; details: 1 mg/kg po × 15 days
[4] = tested on: liver and serum biochemical parameters; test: Protection against altered liver and serum biochemical parameters (toxicant not given); format: in vivo
[5] = dose not given, range given for both agents

CC(=O)OC(C)(C)C=CC(=O)C(C)(O)C1C(O)CC2(C)C3CC=C4C(CC(O[C@@H]5O[C@H](CO)[C@@H](O)[C@H](O)[C@H]5O)C(O)C4(C)C)C3(C)CCC12C (stereo partly drawn) [Cucurbitacin glucoside, 25-acetoxy-2β-D-glucopyranoxy-3,16,20-trihydroxy-9-methyl-19-norlanosta-5,23-diene-22-one]
increase in bile salts ([1]; 0.5 mg/kg): 40%
increase in cholic acid ([1]; 0.5 mg/kg): 38.5%
increase in deoxycholic acid ([1]; 0.5 mg/kg): 47.6%
increase in volume of bile / bile flow ([1]; 0.5 mg/kg): 38%
increase in bile salts ([1]; 1 mg/kg): 100%
increase in cholic acid ([1]; 1 mg/kg): 100%
increase in deoxycholic acid ([1]; 1 mg/kg): 100%
increase in volume of bile / bile flow ([1]; 1 mg/kg): 90%
reversal of decrease in bile acids (cholestasis): completely reversed
reversal of decrease in bile flow (cholestasis): completely reversed
reversal of decrease in bile salts (cholestasis): completely reversed
toxicant-induced decrease in activity of succinate dehydrogenase ([2]; higher dose (1 mg/kg)): reversed significantly
toxicant-induced increase in activity of acid ribonuclease ([2]; higher dose (1 mg/kg)): reversed significantly
protection against decrease in DNA level in liver ([2]; thioacetamide, 0.48 mg/kg): 94%
protection against decrease in RNA level in liver ([2]; thioacetamide, 0.48 mg/kg): 95%
protection against decrease in glycogen level in liver ([2]; thioacetamide, 0.48 mg/kg): 60%
reversal of decrease in DNA level ([2]; thioacetamide, 1 mg/kg): 56%
reversal of decrease in RNA level ([2]; thioacetamide, 1 mg/kg): 100%
reversal of decrease in glycogen level ([2]; thioacetamide, 1 mg/kg): 36%
protection by Trypan blue exclusion test (cell viability) (isolated rat hepatocytes; 0.5 mg/kg po × 7): 97.4%
rate of oxygen consumption / oxygen uptake test (isolated rat hepatocytes; 0.5 mg/kg po × 7): 100%
protection by Trypan blue exclusion test (cell viability) (isolated rat hepatocytes; 1 mg/kg po × 7): 100%
rate of oxygen consumption / oxygen uptake test (isolated rat hepatocytes; 1 mg/kg po × 7): 100%
protection against hepatic damage (biochemical parameters in serum and liver) [3]: marked protection
activity of cytochrome P450 ([4]; 1 mg/kg): significantly restored
activity of γ-glutamyl transpeptidase ([4]; 1 mg/kg): significantly restored
level of DNA ([4]; 1 mg/kg): significant reversal
level of RNA ([4]; 1 mg/kg): significant reversal
level of glycogen ([4]; 1 mg/kg): significant reversal
serum level of GOT ([4]; 1 mg/kg): restored almost completely towards normal
serum level of GPT ([4]; 1 mg/kg): restored almost completely towards normal
level of bilirubin in serum ([4]; dose not given): recovered
level of protein in serum ([4]; dose not given): recovered
protection, level of phospholipids ([4]; dose not given): significant protection
protection, 5'-nucleotidase activity [4, 5]: 46-56%
protection, acid ribonuclease activity [4, 5]: 48-96%
protection, glucose-6-phosphatase activity [4, 5]: 46-61%
protection, level of DNA [4, 5]: 55-78%
protection, level of protein [4, 5]: 96-100%
recovery of increased level of total lipids [4, 5]: 44-55%
